Ends that are not written are not given here.
T1: pro-domain of MMP-7 (PDMMP-7) (Homo sapiens, UniProt P09237)
T1 construct: TRX-His tag (N, cleaved yes); made in house
T1 sequence (P09237 18-94 limits assumed): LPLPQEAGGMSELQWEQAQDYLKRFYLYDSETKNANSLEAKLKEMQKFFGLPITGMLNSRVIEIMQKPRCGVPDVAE

T2: pro-domain of matrix metalloproteinase-7 (MMP-7)
T2 sequence (P09237 whole entry, species assumed, looked up): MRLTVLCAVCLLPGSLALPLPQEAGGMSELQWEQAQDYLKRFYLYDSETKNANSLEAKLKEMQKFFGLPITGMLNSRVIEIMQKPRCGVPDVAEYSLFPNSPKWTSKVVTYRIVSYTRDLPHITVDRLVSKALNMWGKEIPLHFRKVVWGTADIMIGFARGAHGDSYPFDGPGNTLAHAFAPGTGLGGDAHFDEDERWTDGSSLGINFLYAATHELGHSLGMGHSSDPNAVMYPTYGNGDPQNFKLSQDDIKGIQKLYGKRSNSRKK


Assays:
[1] = molecular target: T1, pro-domain of MMP-7 (PDMMP-7); test: Fluorescence titration of peptides against MMP-7 pro-domain; format: binding; conditions: fluorescence spectroscopy; for Kd: ex 280 nm, em 347 nm, 10 μM PDMMP-7, peptide titrated up to 1:80, PBS pH 7.4, 25 °C
Description: The gene encoding the pro-domain sequence (PDMMP-7) was cloned into the pET32a vector, which has a TRX-His tag at the N-terminus, for protein expression and purification. Between the TRX-His tag and the pro-domain, a TEV cleavage sequence was inserted. Proteins were overexpressed with 1 mM IPTG and isolated using Ni-NTA affinity chromatography. The purified TRX-His tag-PDMMP-7 was incubated with TEV protease at a 1:1 molar ratio for 12 h. The reaction mixture was further purified in phosphate-buffered saline (PBS) buffer at pH 7.4 using a HiLoad^TM superdex^TM 75 column (GE Healthcare, Little Chalfont, UK) to remove tags. The final protein sample was concentrated to 14 mg/mL for the fluorescence experiment.
The binding affinity between the PDMMP-7 and each synthetic peptide was measured at 298 K (25 °C) using an LS55 fluorescence spectrophotometer (Perkin Elmer, Waltham, MA, USA) at wavelengths of 280 nm (excitation) and 300–450 nm (emission). PDMMP-7 and peptides were prepared in phosphate-buffered saline (PBS) buffer at pH 7.4. The concentration of PDMMP-7 was set at 10 μM, and the input amount of each peptide versus PDMMP-7 was titrated at a molar ratio up to 1:80 using a thermostat cuvette. The dissociation constant (Kd) of the PDMMP-7/peptide complex was calculated using the equation log[(Fo − F)/F] = log(1/Kd) + nlog[ligand], where Fo and F represent the fluorescence intensity of PDMMP-7 at 347 nm in the absence and presence of the peptide, respectively, and n represents the number of binding sites.

[2] = tested on: MMPs; design: method as in PMID 29735645, PMID 9484924, PMID 10100701, PMID 12085177; conditions: batimastat phase I, marimastat phase III; cited from earlier work
[3] = tested on: HT29-SDC2 cells; test: MTT assay; format: cell-based, human; conditions: 50 nM, up to 48 h
Description: (§1) Cell proliferation was measured by a colorimetric assay using 3-(4,5-dimethythiazol-2-yl) 2,5-diphenyltetrazolium bromide (MTT; Amresco, Solon, OH, USA) according to the manufacturer’s instructions. Briefly, cells were harvested with 0.05% trypsin/EDTA and seeded to 48-well plates (Thermo Fisher Scientific). After cells were allowed to attach to the plate for 24 h, medium containing 0.5 mg/mL MTT was added to each plate and incubation was continued for 1 h. The medium was then removed, and 200 μL of dimethyl sulfoxide (DMSO) was added to each plate for 30 min at room temperature. The mean concentration of absorbance at 570 nm in each set of samples was measured using a 96-well microtiter plate reader (Dynatech, Chantilly, VA, USA).

[4] = tested on: HCT116 cells; test: MTT assay; format: cell-based, human; conditions: 50 nM peptide
Description: as §1

[5] = molecular target: T2, pro-domain of matrix metalloproteinase-7 (MMP-7); test: other fluorescence titration; intrinsic fluorescence of PDMMP-7 (10 μM; excitation 280 nm, emission 300-450 nm, read at 347 nm), peptide titrated up to a molar ratio of 1:80, PBS pH 7.4, 298 K (25 °C)

Kd [1]	Kd [5]	Molecule	further results
1220 µM		SGVYPIDDDDYASASGSGAD [S2-P]	
456 µM		SGVYPIDDFDYESASGSGAD [S2-FE]	cytotoxicity against HT29-SDC2 cells [3]: Neither peptide showed cytotoxicity; cytotoxicity in HCT116 cells [4]: did not exert cytotoxicity
	64 µM	SGVYPIFDLDYDSASGSGAD [S2-FLD, SDC2-mimetic peptide]	
	550 µM	SGVYPIDDDDYDSASGSGAD [S2-D, SDC2-mimetic peptide with an Ala-to-Asp substitution at the C-terminal side of Tyr 51]	
	456 µM	SGVYPIDDFDYESASGSGAD [S2-FE, SDC2-mimetic peptide]	

The remaining lines, values behind:

Molecule	Kd [1]	Kd [5]	further results
SGVYPIDDLDYASASGSGAD [S2-L, modified SDC2-mimetic peptide derived from S2-P]			binding to the MMP-7 pro-domain compared to S2-P ([1]; PBS pH 7.4, 25 °C): reduced binding
SGVYPIFDLDYDSASGSGAD [S2-FLD]	64 µM		
CNC(=O)[C@@H](NC(=O)[C@H](CC(C)C)[C@H](O)C(=O)NO)C(C)(C)C [marimastat]			side effects in clinical trials [2]: significant musculoskeletal toxicity
SGVYPIDDDDYDSASGSGAD [S2-D]	550 µM		cytotoxicity against HT29-SDC2 cells [3]: Neither peptide showed cytotoxicity; cytotoxicity in HCT116 cells [4]: did not exert cytotoxicity
SGVYPIDDDDYASASGSGAD [S2-P, synthetic peptide corresponding to human SDC2 extracellular domain residues 41-60]		1220 µM	
